Marks after values point to notes of the source that are not given here.
What was measured:
Conditions in all cases: 40 ppm (marked *); 100 = 100% disease control, 0 = no control
Septoria tritici = test: Test J: wheat leaf blotch, preventive spray on wheat seedlings; assay type: in vivo
From the text: A dash (-) indicates no test results.

Plasmopara viticola = test: Test D: grape downy mildew, spray after inoculation of grape seedlings; assay type: in vivo
From the text: Upon removal, disease ratings were made. […] A dash (-) indicates no test results.

Rhizoctonia oryzae = test: Test G: turf brown patch, preventive spray on creeping bent grass seedlings
Experimental: (the causal agent of turf brown patch) and incubated in a saturated atmosphere at 27° C. for 24 h, and then moved to a growth chamber at 27° C. for 5 days, after which disease ratings were made.

Sclerotinia sclerotiorum = test: Test C: cucumber white mold, preventive spray on cucumber seedlings
Pythium aphanidermatum = test: Test A: bluegrass pythium blight, preventive spray on bluegrass seedlings
Botrytis cinerea = test: Test E: tomato botrytis, preventive spray on tomato seedlings
Septoria nodorum = test: Test H: wheat glum blotch, preventive spray on wheat seedlings
Experimental: (the causal agent of wheat glum blotch) and incubated in a saturated atmosphere at 20° C. for 48 h, and then moved to a growth chamber at 22° C. for 5 days, after which disease ratings were made.

Phytophthora infestans = test: whole plant or invertebrate; assay type: in vivo
[1] = test system: Puccinia recondita f. sp. tritici; test: Test K: wheat leaf rust, preventive spray on wheat seedlings
fusarium graminearium = test: Test I: wheat head scab, preventive spray on wheat seedlings
Experimental: (the causal agent of wheat head scab) and incubated in a saturated atmosphere at 20° C. for 72 h, and then moved to a growth chamber at 22° C. for 5 days, after which disease ratings were made.

[2] = test system: Colletotrichum orbiculare; test: Test B: cucumber Colletotrichum anthracnose, preventive spray on cucumber seedlings
[3] = test system: Erysiphe graminis f. sp. tritici; test: Test L: wheat powdery mildew, preventive spray on wheat seedlings

## CCCCn1c(-c2ccc(F)cc2Cl)c(Cl)nc(-n2cccn2)c1=O [compound 266]
Septoria tritici
  Test J disease control rating: 100* %
Plasmopara viticola
  Test D disease control rating: 0* %
Rhizoctonia oryzae
  Test G disease control rating: 90* %
Sclerotinia sclerotiorum
  Test C disease control rating: 0* %
Pythium aphanidermatum
  Test A disease control rating: 0* %
Botrytis cinerea
  Test E disease control rating: 100* %
Septoria nodorum
  Test H disease control rating: 99* %
Phytophthora infestans
  Test F disease control rating: 0* %
[1]
  Test K disease control rating: 99* %
Fusarium graminearium
  Test I disease control rating: 0* %
[2]
  Test B disease control rating: 99* %
[3]
  Test L disease control rating: 99* %

## CCCCn1c(-c2ccc(F)cc2Cl)c(Cl)nc(N2CCC=N2)c1=O [compound 267]
Septoria tritici
  Test J disease control rating: 60* %
Plasmopara viticola
  Test D disease control rating: 0* %
Rhizoctonia oryzae
  Test G disease control rating: 0* %
Sclerotinia sclerotiorum
  Test C disease control rating: 0* %
Pythium aphanidermatum
  Test A disease control rating: 0* %
Botrytis cinerea
  Test E disease control rating: 100* %
Septoria nodorum
  Test H disease control rating: 0* %
Phytophthora infestans
  Test F disease control rating: 0* %
[1]
  Test K disease control rating: 68* %
Fusarium graminearium
  Test I disease control rating: 0* %
[2]
  Test B disease control rating: 0* %
[3]
  Test L disease control rating: 0* %

## O=c1c(-n2cccn2)nc(Cl)c(-c2c(F)cccc2F)n1CCO [compound 268]
Septoria tritici
  Test J disease control rating: 7* %
Plasmopara viticola
  Test D disease control rating: 0* %
Rhizoctonia oryzae
  Test G disease control rating: 0* %
Sclerotinia sclerotiorum
  Test C disease control rating: 0* %
Pythium aphanidermatum
  Test A disease control rating: 0* %
Botrytis cinerea
  Test E disease control rating: 0* %
Septoria nodorum
  Test H disease control rating: 0* %
Phytophthora infestans
  Test F disease control rating: 0* %
[1]
  Test K disease control rating: 82* %
Fusarium graminearium
  Test I disease control rating: 0* %
[2]
  Test B disease control rating: 0* %
[3]
  Test L disease control rating: 0* %

## O=c1c(-n2cccn2)nc(Cl)c(-c2c(F)cccc2F)n1CCF [compound 269]
Septoria tritici
  Test J disease control rating: 99* %
Plasmopara viticola
  Test D disease control rating: 0* %
Rhizoctonia oryzae
  Test G disease control rating: 0* %
Sclerotinia sclerotiorum
  Test C disease control rating: 0* %
Pythium aphanidermatum
  Test A disease control rating: 0* %
Botrytis cinerea
  Test E disease control rating: 0* %
Septoria nodorum
  Test H disease control rating: 100* %
Phytophthora infestans
  Test F disease control rating: 0* %
[1]
  Test K disease control rating: 91* %
Fusarium graminearium
  Test I disease control rating: 0* %
[2]
  Test B disease control rating: 0* %
[3]
  Test L disease control rating: 0* %

## O=c1c(-n2cccn2)nc(Cl)c(-c2c(F)cccc2F)n1CCBr [compound 270]
Septoria tritici
  Test J disease control rating: 95* %
Plasmopara viticola
  Test D disease control rating: 24* %
Rhizoctonia oryzae
  Test G disease control rating: 0* %
Sclerotinia sclerotiorum
  Test C disease control rating: 0* %
Pythium aphanidermatum
  Test A disease control rating: 0* %
Botrytis cinerea
  Test E disease control rating: 85* %
Septoria nodorum
  Test H disease control rating: 0* %
Phytophthora infestans
  Test F disease control rating: 0* %
[1]
  Test K disease control rating: 94* %
Fusarium graminearium
  Test I disease control rating: 0* %
[2]
  Test B disease control rating: 0* %
[3]
  Test L disease control rating: 0* %

## O=c1c(-n2cccn2)nc(Cl)c(-c2c(F)cccc2F)n1Cc1ccc(F)cc1 [compound 272]
Septoria tritici
  Test J disease control rating: 100* %
Plasmopara viticola
  Test D disease control rating: 57* %
Rhizoctonia oryzae
  Test G disease control rating: 59* %
Sclerotinia sclerotiorum
  Test C disease control rating: 44* %
Pythium aphanidermatum
  Test A disease control rating: 0* %
Botrytis cinerea
  Test E disease control rating: 100* %
Septoria nodorum
  Test H disease control rating: 99* %
Phytophthora infestans
  Test F disease control rating: 0* %
[1]
  Test K disease control rating: 100* %
Fusarium graminearium
  Test I disease control rating: 0* %
[2]
  Test B disease control rating: 95* %
[3]
  Test L disease control rating: 100* %

## O=c1c(-n2cncn2)nc(Cl)c(-c2c(F)cccc2F)n1Cc1ccc(F)cc1 [compound 273]
Septoria tritici
  Test J disease control rating: 92* %
Plasmopara viticola
  Test D disease control rating: 0* %
Rhizoctonia oryzae
  Test G disease control rating: 0* %
Sclerotinia sclerotiorum
  Test C disease control rating: 0* %
Pythium aphanidermatum
  Test A disease control rating: 0* %
Botrytis cinerea
  Test E disease control rating: 99* %
Septoria nodorum
  Test H disease control rating: 0* %
Phytophthora infestans
  Test F disease control rating: 0* %
[1]
  Test K disease control rating: 86* %
Fusarium graminearium
  Test I disease control rating: 0* %
[2]
  Test B disease control rating: 0* %
[3]
  Test L disease control rating: 0* %

## N#Cc1nc(Cl)c(-c2c(F)cccc2F)n(Cc2ccc(F)cc2)c1=O [compound 274]
Septoria tritici
  Test J disease control rating: 45* %
Plasmopara viticola
  Test D disease control rating: 0* %
Rhizoctonia oryzae
  Test G disease control rating: 0* %
Sclerotinia sclerotiorum
  Test C disease control rating: 0* %
Pythium aphanidermatum
  Test A disease control rating: 0* %
Botrytis cinerea
  Test E disease control rating: 0* %
Septoria nodorum
  Test H disease control rating: 0* %
Phytophthora infestans
  Test F disease control rating: 0* %
[1]
  Test K disease control rating: 91* %
Fusarium graminearium
  Test I disease control rating: 0* %
[2]
  Test B disease control rating: 0* %
[3]
  Test L disease control rating: 71* %

## O=c1c(-n2cccn2)nc(Cl)c(-c2c(F)cccc2F)n1Cc1cccc(Cl)c1 [compound 275]
Septoria tritici
  Test J disease control rating: 100* %
Plasmopara viticola
  Test D disease control rating: 0* %
Rhizoctonia oryzae
  Test G disease control rating: 0* %
Sclerotinia sclerotiorum
  Test C disease control rating: 0* %
Pythium aphanidermatum
  Test A disease control rating: 0* %
Botrytis cinerea
  Test E disease control rating: 100* %
Septoria nodorum
  Test H disease control rating: 99* %
Phytophthora infestans
  Test F disease control rating: 0* %
[1]
  Test K disease control rating: 97* %
Fusarium graminearium
  Test I disease control rating: 0* %
[2]
  Test B disease control rating: 47* %
[3]
  Test L disease control rating: 61* %

## O=c1c(-n2cncn2)nc(Cl)c(-c2c(F)cccc2F)n1Cc1cccc(Cl)c1 [compound 276]
Septoria tritici
  Test J disease control rating: 100* %
Plasmopara viticola
  Test D disease control rating: 0* %
Rhizoctonia oryzae
  Test G disease control rating: 0* %
Sclerotinia sclerotiorum
  Test C disease control rating: 0* %
Pythium aphanidermatum
  Test A disease control rating: 0* %
Botrytis cinerea
  Test E disease control rating: 98* %
Septoria nodorum
  Test H disease control rating: 78* %
Phytophthora infestans
  Test F disease control rating: 0* %
[1]
  Test K disease control rating: 94* %
Fusarium graminearium
  Test I disease control rating: 0* %
[2]
  Test B disease control rating: 0* %
[3]
  Test L disease control rating: 0* %

## N#Cc1nc(Cl)c(-c2c(F)cccc2F)n(Cc2cccc(Cl)c2)c1=O [compound 277]
Septoria tritici
  Test J disease control rating: 63* %
Plasmopara viticola
  Test D disease control rating: 0* %
Rhizoctonia oryzae
  Test G disease control rating: 0* %
Sclerotinia sclerotiorum
  Test C disease control rating: 0* %
Pythium aphanidermatum
  Test A disease control rating: 0* %
Botrytis cinerea
  Test E disease control rating: 0* %
Septoria nodorum
  Test H disease control rating: 0* %
Phytophthora infestans
  Test F disease control rating: 0* %
[1]
  Test K disease control rating: 41* %
Fusarium graminearium
  Test I disease control rating: 0* %
[2]
  Test B disease control rating: 0* %
[3]
  Test L disease control rating: 0* %

## Cc1ccn(-c2nc(Cl)c(-c3c(F)cccc3F)n(-c3ccccc3)c2=O)n1 [compound 278]
Septoria tritici
  Test J disease control rating: 100* %
Plasmopara viticola
  Test D disease control rating: 31* %
Rhizoctonia oryzae
  Test G disease control rating: 92* %
Sclerotinia sclerotiorum
  Test C disease control rating: 0* %
Pythium aphanidermatum
  Test A disease control rating: 0* %
Botrytis cinerea
  Test E disease control rating: 100* %
Septoria nodorum
  Test H disease control rating: 100* %
Phytophthora infestans
  Test F disease control rating: 0* %
[1]
  Test K disease control rating: 100* %
Fusarium graminearium
  Test I disease control rating: 0* %
[2]
  Test B disease control rating: 88* %
[3]
  Test L disease control rating: 99* %

## Cc1ccn(-c2nc(Cl)c(-c3c(F)cccc3F)n(Cc3ccccc3)c2=O)n1 [compound 279]
Septoria tritici
  Test J disease control rating: 100* %
Plasmopara viticola
  Test D disease control rating: 0* %
Rhizoctonia oryzae
  Test G disease control rating: 41* %
Sclerotinia sclerotiorum
  Test C disease control rating: 0* %
Pythium aphanidermatum
  Test A disease control rating: 0* %
Botrytis cinerea
  Test E disease control rating: 99* %
Septoria nodorum
  Test H disease control rating: 98* %
Phytophthora infestans
  Test F disease control rating: 0* %
[1]
  Test K disease control rating: 100* %
Fusarium graminearium
  Test I disease control rating: 0* %
[2]
  Test B disease control rating: 78* %
[3]
  Test L disease control rating: 99* %

Reference: patent publication US20080194585A1, “Fungicidal Pyrazine Derivatives” (priority 2005, published 2008)
